SMILES strings stand for the structures. Like-named read-outs stand apart in the source and are kept apart here.

For one data set, the target named is T1, human Mdm2 1–125 (Homo sapiens, UniProt Q00987).
T1 construct: GST (N); His6 (internal); TEV cleavage site ENLYFQG (internal); made in house; host or cells: Escherichia coli BL21 (DE3) Rosetta T1R
Briefly: Mdm2 binding assay (competitive fluorescence anisotropy/polarization). The note with it: Table 1; competitive fluorescence polarization; read-out: Mdm2 (nM), Mdm2 binding (Kd).

Data set [1] relates to p53 responsive β-lactamase reporter in HCT116 cells. The data set can be described thus: p53 beta-lactamase reporter gene cellular functional assay. It counts as cell-based. Summed up: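 HCT116 cells stably carrying a p53-responsive β-lactamase reporter seeded 8000/well overnight, then switched to Opti-MEM with 0% or 10% FBS for compound treatment at 0.5% DMSO final. β-Lactamase activity measured with ToxBLAzer Dual Screen on a multiplate reader.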

A short description of data set [2]: Lactate dehydrogenase (LDH) release assay. The conditions noted are these: membrane integrity, HCT116. It counts as cell-based. As to the method:
HCT116 cells were seeded into a 384-well plate at a density of 8000 cells per well. Cells were maintained in McCoy’s 5A Medium with 10% fetal bovine serum (FBS), Blasticidin, and Penicillin/Streptomycin. The cells were incubated overnight, followed by the removal of cell media and the addition of Opti-MEM Medium without FBS. Cells were then treated with peptides for 4 or 16 h in Opti-MEM, either in 10% FBS or in serum free conditions. The final concentration of DMSO was 0.5%. Lactate dehydrogenase release was detected using the CytoTox-ONE Homogenous Membrane Integrity Assay Kit (Promega), as per the manufacturer’s instructions. Measurements were carried out using the Tecan plate reader. Maximum LDH release was defined as the amount of LDH released as induced by the lytic peptide (iDNA79) and used to normalize the results.

Data set [3] deals with T2, recombinant human Mdm2 protein (amino acids 1–125) (Homo sapiens, UniProt Q00987).
T2 construct: purified recombinant human Mdm2 protein (amino acids 1–125); made in house
Briefly: Isothermal titration calorimetry (ITC). It counts as binding. The note with it: Figure 2A middle panel. As to the method: Overnight dialysis of protein and peptides were carried out in buffer containing 1× phosphate-buffered saline (PBS) pH 7.2, 3% DMSO, and 0.001% Tween-20. […] Reverse ITC (200 µM of Mdm2 protein titrated into 20 µM of peptide) was carried out for peptides that are insoluble at high concentrations. All experiments were performed in duplicates using the MicroCal PEAQ-ITC Automated system. Data analysis was carried out using the MicroCal PEAQ-ITC Analysis Software.

In another data set the target is T3, biotinylated Mdm2 (Homo sapiens, UniProt Q00987).
T3 construct: made in house
Briefly: Surface plasmon resonance (SPR). It counts as binding. The conditions noted are these: Figure 2A right panel, 25 °C.

Data set [4] in a line: Circular dichroism (CD) α-helicity. Type of data set: physicochemical. The note with it: Table 1; CD of free peptide, 25 °C, 1 mM Hepes pH 7.4, 5% methanol. The method in brief: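 Peptide dried from methanol, reconstituted to 1 mM in 1 mM Hepes pH 7.4 with 5% methanol; concentration by A280. CD spectra 300–190 nm, 0.2 cm path, 25 °C, duplicates; converted to mean residue ellipticity and deconvoluted for secondary structure.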

Data set [5] in a line: Whole cell homogenate stability. It counts as in vitro ADME. The conditions noted are these: 1 μM peptide, 37 °C, up to 22 h. As to the method: Peptides at a concentration of 1 μM were incubated at 37 °C with HCT116 whole cell homogenates prepared from 1 million lysed cells/mL. The reaction was stopped at 0, 1, 2, 4, and 22 h with an organic solvent followed by centrifugation. The resulting supernatant was injected into LC/MS for detection of the tested peptide. The remaining percentage of each compound was normalized to the 0 h amount and reported. As a positive control, we used the ONEG peptide with the sequence […] [28].

T3 sequence (Q00987 whole entry): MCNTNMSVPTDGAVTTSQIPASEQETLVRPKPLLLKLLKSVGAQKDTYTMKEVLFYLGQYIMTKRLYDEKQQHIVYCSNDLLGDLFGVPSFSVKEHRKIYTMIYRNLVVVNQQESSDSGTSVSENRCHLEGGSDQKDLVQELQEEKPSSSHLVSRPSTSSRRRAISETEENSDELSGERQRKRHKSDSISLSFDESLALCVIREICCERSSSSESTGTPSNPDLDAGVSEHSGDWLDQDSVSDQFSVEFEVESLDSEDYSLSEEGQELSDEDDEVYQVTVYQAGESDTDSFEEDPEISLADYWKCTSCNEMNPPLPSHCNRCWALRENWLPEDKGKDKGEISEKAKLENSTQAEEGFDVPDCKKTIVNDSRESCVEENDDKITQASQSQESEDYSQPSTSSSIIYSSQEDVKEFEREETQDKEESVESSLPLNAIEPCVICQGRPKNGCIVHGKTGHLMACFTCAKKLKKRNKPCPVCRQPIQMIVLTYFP
T2 sequence (Q00987 1-125): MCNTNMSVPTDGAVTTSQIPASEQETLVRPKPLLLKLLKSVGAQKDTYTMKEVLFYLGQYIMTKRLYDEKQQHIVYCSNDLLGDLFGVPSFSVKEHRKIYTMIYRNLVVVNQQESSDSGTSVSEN
T1 sequence (Q00987 with tags, fused parts or gaps): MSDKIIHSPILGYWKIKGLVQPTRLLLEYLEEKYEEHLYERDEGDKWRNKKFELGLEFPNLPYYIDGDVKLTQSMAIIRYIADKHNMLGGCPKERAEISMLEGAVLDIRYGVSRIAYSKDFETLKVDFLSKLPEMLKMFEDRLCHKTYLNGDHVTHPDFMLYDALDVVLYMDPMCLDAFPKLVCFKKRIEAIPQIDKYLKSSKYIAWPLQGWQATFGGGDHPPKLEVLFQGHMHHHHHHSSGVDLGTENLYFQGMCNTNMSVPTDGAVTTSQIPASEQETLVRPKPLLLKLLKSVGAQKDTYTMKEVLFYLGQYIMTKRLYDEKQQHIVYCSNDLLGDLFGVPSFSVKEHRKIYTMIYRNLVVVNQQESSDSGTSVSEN
Procedure for biotinylated Mdm2: SPR experiments were performed with Biacore T100 (GE Healthcare) at 25 °C. […] The SPR buffer consisted of 50 mM Tris pH 7.4, 150 mM NaCl, 1 mM DTT, 0.05% Tween 20, and 3% DMSO. The CM5 chip was first conditioned with 100 mM HCl, followed by 0.1% SDS, 50 mM NaOH, and then water, all performed twice with 6 sec injection at a flow rate of 100 µL/min. With the flow rate set to 10 µL/min, streptavidin (S4762, Sigma-Aldrich) was immobilized on the conditioned chip through amine coupling, as described in the Biacore manual. Excess protein was removed by 30 s injection of the wash solution (50 mM NaOH + 1 M NaCl) at least eight times. The immobilized level was ~3000 RU. The biotinylated Mdm2 was captured by streptavidin, up to a level of ~400 RU. A flow cell consisting of only streptavidin was used as the reference surface. Using a flow rate of 30 µL/min, peptides dissolved in the SPR buffer were injected for 180 s. The dissociation was monitored for 300 s. […] After the run, responses from the target protein surface were transformed by: (i) correcting with the DMSO calibration curve, (ii) subtracting the responses obtained from the reference surface, and (iii) subtracting the responses of the buffer injections from those of peptide injections. The last step is known as double referencing, which corrects the systematic artefacts. […]

For the compound `CC(=O)N[C@@H](CC(C)C)C(=O)N[C@H](C(=O)N[C@@H](Cc1ccccc1)C(=O)N[C@]1(C)CCCCCCC=CCCC[C@@](C)(C(=O)N[C@@H](CO)C(=O)N[C@@H](C)C(=O)N[C@@H](C)C(N)=O)NC(=O)[C@H](CC2CCC2)NC(=O)[C@H](CC(C)C)NC(=O)[C@H](CCC(N)=O)NC(=O)[C@H](Cc2c[nH]c3ccccc23)NC(=O)[C@H](Cc2ccc(O)cc2)NC(=O)[C@H](CCC(=O)O)NC1=O)[C@@H](C)O` [MP-292], the Kd on human Mdm2 1–125 is 18.6 nM; in data set [3] it was < 20 nM; on biotinylated Mdm2, 1.4 nM. Moreover, the EC50 in data set [1] (0% serum, read-out: p53 reporter assay EC50) was 0.5 µM; in data set [1] (2% serum, read-out: p53 reporter assay EC50), 0.7 µM; in data set [1] (10% serum, read-out: p53 reporter assay EC50) it was 4.2 µM; in data set [1] (Table 1, p53 reporter assay, HCT116, read-out: Cellular (µM), cellular activity (EC50)), 0.54 µM; in data set [2], > 50000 nM. For the same compound, the “Helicity (%)” value in data set [4] was 32.8%. The “stability in whole cell homogenate” value in data set [5] was “minimal degradation”.

(Values after PMC6632053, “Incorporation of Putative Helix-Breaking Amino Acids in the Design of Novel Stapled Peptides: Exploring Biophysical and Cellular Permeability Properties” (Molecules, 2019).)
